Experimental data: the supplement of paper PMC10307832

Tests used:
Test in all cases: relative viability (nuclei count vs DMSO), 5 days (fraction); higher = more cells survive
Pazopanib + Decitabine = compound: Cc1ccc(Nc2nccc(N(C)c3ccc4c(C)n(C)nc4c3)n2)cc1S(N)(=O)=O [Pazopanib] + Nc1ncn([C@H]2C[C@H](O)[C@@H](CO)O2)c(=O)n1 [Decitabine] (partner 2 µM)
Procedure, shortened: (§1)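 Nuclei were stained with Hoechst during a one-step fixation (final 0.05% Triton X-100, 1% formaldehyde, 1 ug/ml Hoechst) carried out 5 days after dosing, then counted on 4× images. The cells, lung cancer lines in 1536-well plates, had been dosed by pin tool the day after seeding with one drug alone or a fixed anchor-drug dose plus five library-drug doses (not always all listed) in √10 steps. Relative viability is the nuclei count in treated wells divided by that in vehicle wells, and each value is the median of duplicate plates.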

Pazopanib + OSI-027 = compound: Cc1ccc(Nc2nccc(N(C)c3ccc4c(C)n(C)nc4c3)n2)cc1S(N)(=O)=O [Pazopanib] + COc1cccc2cc(-c3nc([C@H]4CC[C@H](C(=O)O)CC4)n4ncnc(N)c34)[nH]c12 [OSI-027] (partner 0.5 µM)
Procedure, shortened: as §1

Pazopanib + Olaparib = compound: Cc1ccc(Nc2nccc(N(C)c3ccc4c(C)n(C)nc4c3)n2)cc1S(N)(=O)=O [Pazopanib] + O=C(c1cc(Cc2n[nH]c(=O)c3ccccc23)ccc1F)N1CCN(C(=O)C2CC2)CC1 [Olaparib] (partner 8 µM)
Procedure, shortened: as §1

Ponatinib + Pemetrexed = compound: Cc1ccc(C(=O)Nc2ccc(CN3CCN(C)CC3)c(C(F)(F)F)c2)cc1C#Cc1cnc2cccnn12 [Ponatinib] + Nc1nc2[nH]cc(CCc3ccc(C(=O)N[C@@H](CCC(=O)O)C(=O)O)cc3)c2c(=O)[nH]1 [Pemetrexed] (partner 0.2 µM)
Procedure, shortened: as §1

Row | Cell Line | relative viability (Pazopanib + Decitabine; first compound 0.01 µM) | relative viability (Pazopanib + Decitabine; first compound 0.03162 µM) | relative viability (Pazopanib + Decitabine; first compound 0.1 µM) | relative viability (Pazopanib + Decitabine; first compound 0.3162 µM) | relative viability (Pazopanib + Decitabine; first compound 1 µM) | relative viability (Pazopanib + OSI-027; first compound 0.01 µM) | relative viability (Pazopanib + OSI-027; first compound 0.03162 µM) | relative viability (Pazopanib + OSI-027; first compound 0.1 µM) | relative viability (Pazopanib + OSI-027; first compound 0.3162 µM) | relative viability (Pazopanib + OSI-027; first compound 1 µM) | relative viability (Pazopanib + Olaparib; first compound 0.01 µM) | relative viability (Pazopanib + Olaparib; first compound 0.03162 µM) | relative viability (Pazopanib + Olaparib; first compound 0.1 µM) | relative viability (Pazopanib + Olaparib; first compound 0.3162 µM) | relative viability (Pazopanib + Olaparib; first compound 1 µM) | relative viability (Ponatinib + Pemetrexed; first compound 0.002 µM) | relative viability (Ponatinib + Pemetrexed; first compound 0.006325 µM) | relative viability (Ponatinib + Pemetrexed; first compound 0.06325 µM) | relative viability (Ponatinib + Pemetrexed; first compound 0.2 µM)
1 | NCI-H2347 | 0.68 | 0.555 | 0.673 | 0.732 | 0.666 | 0.425 | 0.465 | 0.402 | 0.405 | 0.344 | 0.541 | 0.609 | 0.538 | 0.575 | 0.558 | 0.41 | 0.444 | 0.474 | 0.485
2 | LU99A | – | 0.916 | 0.935 | 0.953 | 0.961 | 0.29 | 0.315 | 0.334 | 0.349 | 0.301 | – | 0.243 | 0.313 | 0.275 | 0.267 | 0.17 | 0.173 | 0.186 | 0.315
3 | NCI-H1355 | 0.355 | 0.314 | 0.367 | 0.358 | 0.386 | 0.37 | 0.441 | 0.396 | 0.423 | 0.477 | 0.716 | 0.708 | 0.76 | 0.761 | 0.754 | 0.983 | 0.975 | 1.14 | 1.07
4 | HCC-78 | – | 0.729 | 0.648 | 0.691 | 0.818 | 0.361 | 0.423 | 0.348 | 0.411 | 0.371 | – | 0.87 | 0.778 | 0.906 | 0.995 | 0.576 | 0.885 | 0.865 | 0.894
5 | NCI-H1563 | – | – | – | – | – | 0.716 | 0.802 | 0.788 | 0.802 | 0.734 | – | – | – | – | – | 0.748 | 0.798 | 0.745 | 0.641
6 | HCC-15 | 0.53 | 0.712 | 0.572 | 0.59 | 0.827 | 0.622 | 0.825 | 0.7 | 0.669 | 0.815 | 0.689 | 0.671 | 0.697 | 0.723 | 0.672 | 0.223 | 0.217 | 0.226 | 0.224
7 | EKVX | 0.374 | 0.303 | 0.324 | 0.356 | 0.472 | 0.664 | 0.741 | 0.642 | 0.691 | 0.788 | 0.766 | 1.05 | 0.863 | 0.867 | 0.911 | 0.382 | 0.493 | 0.427 | 0.374
8 | NCI-H2087 | 0.186 | 0.321 | 0.264 | 0.252 | 0.424 | 0.502 | 0.567 | 0.489 | 0.553 | 0.487 | 0.72 | 0.7 | 0.745 | 0.549 | 0.568 | 0.673 | 0.648 | 0.657 | 0.579
9 | LK-2 | 0.228 | 0.318 | 0.324 | 0.243 | 0.277 | 0.199 | 0.228 | 0.185 | 0.233 | 0.171 | 0.575 | 0.673 | 0.735 | 0.807 | 0.539 | 0.281 | 0.305 | 0.186 | 0.247
